In patent US20180185313A1, “COMPOSITION COMPRISING AMINO ACID AND CYCLIC DIPEPTIDE” (SUNTORY HOLDINGS LIMITED, priority 2015, published 2018):

How the values were obtained:
[1] = molecular target: T1, angiotensin-converting enzyme (Homo sapiens, UniProt P12821); test: Angiotensin I-converting enzyme-inhibiting activity by ACE Kit-WST (Dojindo Laboratories), residual activity; assay type: biochemical; conditions: for angiotensin-converting enzyme-inhibiting action brought about by the amino acid on addition of the cyclic dipeptide: cyclic dipeptide added in a given amount to the amino acid, summary of Tables 1 to 4
T1 construct: purchased Dojindo Laboratories ACE Kit-WST
T1 sequence (P12821 30-1306, species assumed): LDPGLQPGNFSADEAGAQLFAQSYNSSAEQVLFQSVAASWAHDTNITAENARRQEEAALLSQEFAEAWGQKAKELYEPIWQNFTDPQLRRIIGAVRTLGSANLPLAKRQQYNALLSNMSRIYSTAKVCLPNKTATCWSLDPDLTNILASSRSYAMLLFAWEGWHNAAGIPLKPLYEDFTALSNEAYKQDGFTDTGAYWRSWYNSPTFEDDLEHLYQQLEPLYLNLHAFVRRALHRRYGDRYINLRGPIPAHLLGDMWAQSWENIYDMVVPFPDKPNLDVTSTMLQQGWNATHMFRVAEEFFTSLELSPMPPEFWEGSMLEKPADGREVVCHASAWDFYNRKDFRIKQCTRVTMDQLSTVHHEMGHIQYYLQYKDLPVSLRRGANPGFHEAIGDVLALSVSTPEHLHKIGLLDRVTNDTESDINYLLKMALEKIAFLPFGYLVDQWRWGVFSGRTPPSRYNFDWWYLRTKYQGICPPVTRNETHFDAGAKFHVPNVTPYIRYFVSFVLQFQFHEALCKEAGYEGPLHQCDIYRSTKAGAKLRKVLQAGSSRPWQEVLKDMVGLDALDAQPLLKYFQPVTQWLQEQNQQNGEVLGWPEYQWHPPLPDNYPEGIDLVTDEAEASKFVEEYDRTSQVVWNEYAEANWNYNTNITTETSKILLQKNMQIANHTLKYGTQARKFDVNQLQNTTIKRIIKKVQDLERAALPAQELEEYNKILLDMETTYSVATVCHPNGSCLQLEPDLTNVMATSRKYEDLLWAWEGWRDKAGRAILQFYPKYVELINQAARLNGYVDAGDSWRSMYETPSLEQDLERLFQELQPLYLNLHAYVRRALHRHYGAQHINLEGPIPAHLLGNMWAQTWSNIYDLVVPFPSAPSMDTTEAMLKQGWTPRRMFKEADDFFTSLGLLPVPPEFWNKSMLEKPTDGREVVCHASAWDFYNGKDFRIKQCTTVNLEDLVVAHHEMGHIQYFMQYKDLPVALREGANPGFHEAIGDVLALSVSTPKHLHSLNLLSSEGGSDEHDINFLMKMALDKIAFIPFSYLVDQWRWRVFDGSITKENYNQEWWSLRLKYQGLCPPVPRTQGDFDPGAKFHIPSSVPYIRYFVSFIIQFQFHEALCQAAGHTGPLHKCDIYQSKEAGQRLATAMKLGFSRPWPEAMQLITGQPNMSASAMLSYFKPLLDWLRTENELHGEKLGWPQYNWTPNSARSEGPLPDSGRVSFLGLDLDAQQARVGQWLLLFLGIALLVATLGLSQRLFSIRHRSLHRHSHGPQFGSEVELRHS
Method: The enhancing effect of a cyclic dipeptide on the angiotensin-converting enzyme-inhibiting action of an amino acid was evaluated. Specifically, as for the inhibiting effects of amino acids and cyclic dipeptides, angiotensin I-converting enzyme-inhibiting activities were measured by using ACE Kit-WST (Dojindo Laboratories) according to the instruction manual attached to the kit. The amino acids were studied at a concentration of 1000 μM, 3000 μM, or 5000 μM, and the cyclic dipeptides were studied at a concentration of 20 μM, 50 μM, 100 μM, 250 μM, or 500 μM. Their-inhibiting activities were evaluated as the residual activity of angiotensin-converting enzyme calculated according to expression 1 given below. A control supplemented with distilled water instead of the aqueous cyclic dipeptide solution was used. Chemically synthesized samples were used as the cyclic dipeptides.
Residual activity (%)=(Absorbance at 450 nm from the cyclic dipeptide-added group/Absorbance from 450 nm from the control)×100 (Expression 1)

[2] = tested on: spontaneously hypertensive rats; conditions: oral administration; cited from earlier work
[3] = amino acid alone, no cyclic dipeptide

remaining activity at 1000 µM [1, 3] [%] | remaining activity at 5000 µM [1, 3] [%] | angiotensin-converting enzyme-inhibiting action brought about by the amino acid on addition of the cyclic dipeptide [1] | Compound | other results
83.2 | 43.3 |  | CC(C)C[C@H](N)C(=O)O [Leucine, leucine] | 
86.6 | 69 |  | C[C@@H](O)[C@H](N)C(=O)O [Threonine, threonine] | 
94 |  |  | N[C@@H](Cc1ccc(O)cc1)C(=O)O [Tyrosine, tyrosine] | remaining activity at 3000 µM ([1]; amino acid alone, 3000 μM, no cyclic dipeptide): 90.6%
 |  |  | N[C@@H](Cc1c[nH]cn1)C(=O)O [histidine] | mean arterial pressure [2]: decrease
 |  | enhanced | cyclo-glutamyl-histidine [Cyclo(Glu-His)] | 
 |  | enhanced | cyclo-isoleucyl-serine [Cyclo(Ile-Ser)] | 

Compound | remaining activity at 1000 µM [1, 3] [%] | remaining activity at 5000 µM [1, 3] [%] | angiotensin-converting enzyme-inhibiting action brought about by the amino acid on addition of the cyclic dipeptide [1] | other results
N=C(N)NCCC[C@H](N)C(=O)O [Arginine, arginine] | 84.8 | 60.2 |  | 
cyclo-arginyl-tyrosine [Cyclo(Arg-Tyr)] |  |  | enhanced | 
